Test results taken from patent EP4691473A1, “PLATYCLADUS ORIENTALIS EXTRACT, PREPARATION METHOD THEREFOR AND USE THEREOF” (Beijing Academy of TCM Beauty Supplements Co., Ltd., priority 2023, dated 2024).

How the values were obtained:
5α-reductase = 5α-reductase (Mus musculus, UniProt Q68FF9); assay: 5α-Reductase Inhibition Test (decrease in absorbance at 340 nm, NADPH/testosterone); format: biochemical; conditions: for A: absorbance decrease at 340 nm
Procedure: • (1) Test drug: Sample of Example 52 • (2) Positive control drug: Finasteride, a product of Merck Sharp & Dohme Limited; Appearance: Film-coated tablets, white after removal of the coating; Specification: 5 mg/tablet; Batch number: 0022050. Storage conditions: light-shielded, airtight, and stored at room temperature. • (3) Drug preparation: The sample of Example 52 was tested at 10 concentrations: 35 mg/mL (solute: the sample of Example 52, solvent: 20% aqueous ethanol solution) was adopted as the initial concentration, and nine 2.5-fold gradient dilutions were made by using 20% aqueous ethanol solution; and five 2-fold gradient dilutions of the positive control finasteride were made by using anhydrous ethanol. • (4) Reagents: Reduced coenzyme II (NADPH), a product of Sigma, Catalog number N7505, Batch number 041939; testosterone (T), a product of Merck, Catalog number T-037; Batch number FE03112002; Tris buffer: Shanghai Yuanye Biotechnology Co., Ltd., Batch number J17HR10516A. • (5) Test instrument: ZDN microplate reader, a product of BioTek.
Mouse liver was obtained by dissection, and was added into a Tris buffer at a ratio of 1:5 for homogenization at 0°C. The homogenized liver was centrifuged at 10000g for 15 minutes, the supernatant was centrifuged at 55000g for another hour, and then the supernatant was placed at 4°C for later use. Reagents and samples were added according to the reaction system. Sample of Example 52 and finasteride sample at each dilution were added 4 times. After incubation at 37°C for 60 minutes, the decrease in absorbance ΔA at 340nm was measured. Inhibition rate (%) = (blank ΔA−sample ΔA)/(blank ΔA) × 100 [formula]
The 5α-reductase reaction system is shown in Table 16: Table 16 Reagent amount for the reaction system (µL)

Malassezia = Malassezia antibacterial test (microbroth method, OD600 after 72 hours); format: cell-based; conditions: Ketoconazole 4µg/mL, read-out: Malassezia inhibition rate, positive control
Procedure: A culture medium and Malassezia were mixed thoroughly by shaking until no sediment was present at the bottom. A sterile syringe was used to pipette 200-800 µL of the bacterial suspension into fresh culture medium and incubate at 30°C in a biochemical incubator. After 2-3 days of incubation, the sample was subcultured.
A sterile malt extract culture medium was transferred into a sterile 50mL centrifuge tube. The sterile malt extract culture medium was centrifuged at 25°C and 3500 rpm for 10 minutes. The supernatant was transferred to another sterile 50mL centrifuge tube for later use.
Each sample was diluted with fresh culture medium to a concentration of 50 mg/mL, 40 mg/mL, 30 mg/mL, 20 mg/mL, 10 mg/mL, or 5 mg/mL.
The culture medium and Malassezia were mixed thoroughly by shaking and transferred to a sterile 50mL centrifuge tube. The mixture was centrifuged at 25°C and 1000 rpm for 30 seconds. The supernatant was transferred to a sterile 50 mL centrifuge tube and centrifuge at 25°C and 3500 rpm for 10 minutes.
A microplate reader was set at a wavelength of 600 nm. […] The OD600 value of the bacterial suspension was detected at 600 nm. […]
The required volume of bacterial suspension was calculated. […]
The sterile 96-well culture plate was placed in a 30°C incubator. After 72 hours of incubation, the absorbance at 600nm was recorded. […]

5α-reductase, sequence (Q68FF9 whole entry): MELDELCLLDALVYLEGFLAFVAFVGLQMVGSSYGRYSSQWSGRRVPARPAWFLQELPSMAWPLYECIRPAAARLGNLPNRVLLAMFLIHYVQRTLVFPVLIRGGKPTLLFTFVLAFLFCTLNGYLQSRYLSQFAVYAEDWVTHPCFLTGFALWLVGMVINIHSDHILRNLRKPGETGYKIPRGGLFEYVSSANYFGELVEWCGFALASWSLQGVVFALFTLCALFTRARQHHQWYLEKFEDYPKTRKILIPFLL

| SMILES | inhibition at 0.003 µg/mL (5α-reductase; Finasteride 0.003 µg/mL, read-out: Inhibition rate) | inhibition at 0.006 µg/mL (5α-reductase; Finasteride 0.006 µg/mL, read-out: Inhibition rate) | inhibition at 0.012 µg/mL (5α-reductase; Finasteride 0.012 µg/mL, read-out: Inhibition rate) | inhibition at 0.025 µg/mL (5α-reductase; Finasteride 0.025 µg/mL, read-out: Inhibition rate) | inhibition at 0.05 µg/mL (5α-reductase; Finasteride 0.050 µg/mL, read-out: Inhibition rate) | A (5α-reductase; Finasteride 0.003 µg/mL) | A (5α-reductase; Finasteride 0.012 µg/mL) | A (5α-reductase; Finasteride 0.025 µg/mL) | A (5α-reductase; Finasteride 0.050 µg/mL) | inhibition at 4 µg/mL (Malassezia) |
| --- | --- | --- | --- | --- | --- | --- | --- | --- | --- | --- |
| CC(C)(C)NC(=O)[C@H]1CC[C@H]2[C@@H]3CC[C@H]4NC(=O)C=C[C@]4(C)[C@H]3CC[C@]12C [Finasteride] | 6.12% | 15.4% | 26.3% | 39.2% | 63.1% | 0.10 | 0.08 | 0.07 | 0.04 |  |
| CC(=O)N1CCN(c2ccc(OCC3COC(Cn4ccnc4)(c4ccc(Cl)cc4Cl)O3)cc2)CC1 (stereo not shown) [Ketoconazole] |  |  |  |  |  |  |  |  |  | 95 ± 3.59% |
